In patent publication US7049289B1, “Labelled glutamine and lysine analogues” (Amersham PLC, priority 1998, dated 2006):
code Z = not defined here

Key:
[1] = molecular target: T1, fibrin (in vitro human plasma clot) (Homo sapiens, UniProt P02671+P02675+P02679); assay: Incorporation into human plasma clots in vitro; assay type: biochemical; conditions: for % specific uptake: % retained (with thrombin) - % retained (no thrombin); for % retained (no thrombin): control without thrombin and calcium chloride (non-specific binding); for % retained (with thrombin): human plasma clot, 60 minutes, ca. 20° C.
T1 construct: about 400 μl of human plasma containing the radiolabelled substrate; from tissue; host or cells: human plasma, clotted in vitro with added thrombin and calcium chloride
T1 sequence (P02671 20-644 isoform P02671-2 limits assumed): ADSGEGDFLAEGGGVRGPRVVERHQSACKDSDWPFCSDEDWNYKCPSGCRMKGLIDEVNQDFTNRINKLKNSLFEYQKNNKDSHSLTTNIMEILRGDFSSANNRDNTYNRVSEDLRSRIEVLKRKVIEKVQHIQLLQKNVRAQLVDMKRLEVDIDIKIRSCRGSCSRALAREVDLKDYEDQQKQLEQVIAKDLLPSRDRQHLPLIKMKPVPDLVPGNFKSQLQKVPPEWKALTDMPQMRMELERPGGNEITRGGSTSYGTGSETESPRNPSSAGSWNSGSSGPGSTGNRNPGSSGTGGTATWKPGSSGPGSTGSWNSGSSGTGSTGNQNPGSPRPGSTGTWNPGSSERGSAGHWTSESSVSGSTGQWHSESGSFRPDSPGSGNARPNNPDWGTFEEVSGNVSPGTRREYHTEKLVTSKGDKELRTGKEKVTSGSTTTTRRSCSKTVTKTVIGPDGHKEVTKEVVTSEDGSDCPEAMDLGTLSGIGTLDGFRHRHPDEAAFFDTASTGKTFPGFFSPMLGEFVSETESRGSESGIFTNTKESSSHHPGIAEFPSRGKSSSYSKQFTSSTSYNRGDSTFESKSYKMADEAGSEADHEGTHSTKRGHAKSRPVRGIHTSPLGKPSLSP
T1 sequence (P02675 45-491 limits assumed): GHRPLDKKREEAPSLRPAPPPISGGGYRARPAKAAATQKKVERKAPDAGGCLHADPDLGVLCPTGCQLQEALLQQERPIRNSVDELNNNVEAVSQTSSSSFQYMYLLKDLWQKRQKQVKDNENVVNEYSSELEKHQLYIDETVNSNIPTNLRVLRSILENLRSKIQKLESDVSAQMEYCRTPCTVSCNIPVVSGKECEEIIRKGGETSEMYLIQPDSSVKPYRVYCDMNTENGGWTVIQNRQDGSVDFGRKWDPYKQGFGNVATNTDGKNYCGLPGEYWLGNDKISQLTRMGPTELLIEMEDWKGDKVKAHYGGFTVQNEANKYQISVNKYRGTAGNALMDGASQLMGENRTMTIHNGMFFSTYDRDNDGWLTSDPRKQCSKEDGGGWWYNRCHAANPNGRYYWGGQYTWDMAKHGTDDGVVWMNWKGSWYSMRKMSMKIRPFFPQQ
T1 sequence (P02679 27-437 isoform P02679-2 limits assumed): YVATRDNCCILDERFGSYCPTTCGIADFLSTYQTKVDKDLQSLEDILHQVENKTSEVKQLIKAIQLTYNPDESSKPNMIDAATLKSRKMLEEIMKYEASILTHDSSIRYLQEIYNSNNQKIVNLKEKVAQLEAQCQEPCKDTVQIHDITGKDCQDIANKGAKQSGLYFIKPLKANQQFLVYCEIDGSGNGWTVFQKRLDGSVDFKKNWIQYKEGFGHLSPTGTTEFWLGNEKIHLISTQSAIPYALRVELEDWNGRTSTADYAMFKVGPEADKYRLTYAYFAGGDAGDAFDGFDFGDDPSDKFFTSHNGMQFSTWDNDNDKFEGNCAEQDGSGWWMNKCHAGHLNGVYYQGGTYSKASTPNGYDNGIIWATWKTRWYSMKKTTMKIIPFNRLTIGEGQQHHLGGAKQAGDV
Procedure: Incorporation of radiolabelled substrates into fibrin was investigated by induction of an in vitro human plasma clot in the following manner. To a siliconised 5 ml glass vial was added, (a) 800 μl of Tris(hydroxymethyl)aminomethane buffered saline pH 7.5 containing calcium chloride (50 mM Tris, 150 mM sodium chloride, 4 mM calcium chloride.), (b) about 40 μl of physiological salt solution containing 100 units of thrombin per ml, (c) about 400 μl of human plasma containing the radiolabelled substrate at a concentration of typically 10 kBq/ml. To aid induction of clot a roughened glass rod was added to the reaction vial. Control vials were prepared similarly but with the omission of thrombin and calcium chloride.
After incubation of the test solution at ambient laboratory temperature (ca. 20° C.) for 60 minutes the reaction was discontinued with the addition of about 400 μl of a cold solution of 33.5 mM ethylenediaminetetra-acetic acid disodium salt. Clots were separated from serum by vacuum filtration onto […] nitrocellulose filters (pre-soaked in 1.5% BSA/tris(hydroxymethyl)aminoethae buffered saline pH 7.5 containing 0.1% Tween 20) and washed with about 2×10 ml of tris(hydroxymethyl)aminomethane buffered saline pH 7.5 containing Tween 20 to a final concentration of 0.1% v/v. The proportion of total radioactivity was calculated by counting in suitable detection apparatus.
The fraction of radioactivity retained on the filter, after subtraction of the non-specific binding determined from the control, is a measure of incorporation into the filtered clots.

[2] = Incorporation into clots induced in a rat model (rat inferior vena cava model); assay type: in vivo, rat (Male Wistar); conditions: for % id/g (clot) / Rel. Conc. (cpm/g of clot by dose/g animal): sacrificed after 60 min
Procedure: The rats (Male Wistar, 250–350 g) were anaesthetised with 15% urethane. After laparotomy, the vena cava was isolated and freed of surrounding fat tissue. […] The compounds were injected 5 min (fresh clot) and 60 min (aged clot) post-induction. After 60 min the animals were sacrificed and the clot removed, weighed and counted. Other tissues e.g. blood, lung, heart, were also dissected and counted. The uptake of tracer into the clot was determined as the relative concentration (cpm/g of clot by dose/g animal) and clot to background tissue.

[3] = Aged Clots: injected 60 min post-induction
[4] = Fresh Clots: injected 5 min post-induction

Substance	% specific uptake [1] [%]	% retained (no thrombin) [1] [%]	% retained (with thrombin) [1] [%]	Clot/blood ([2]; Aged Clots)	Clot/heart ([2]; Aged Clots)	Clot/liver ([2]; Aged Clots)	Clot/lung ([2]; Aged Clots)	% id/g (clot) [2, 3] [% id/g]	Rel. Conc. (cpm/g of clot by dose/g animal) [2, 3]	Clot/blood ([2]; Fresh Clots)	Clot/heart ([2]; Fresh Clots)	Clot/liver ([2]; Fresh Clots)	Clot/lung ([2]; Fresh Clots)	% id/g (clot) [2, 4] [% id/g]	Rel. Conc. (cpm/g of clot by dose/g animal) [2, 4]
Ac-NQEQVSPYTLLKG-NH2 [^123I-Cmpd 2]	38.4	0.2	38.6	24	23	20	12	5.5 ± 1.7	14.5 ± 3.9	7	19	21	10	4.9 ± 0.8	14.5 ± 2.2
Ac-NQEAVSPYTLLKG-Pn216 (also: 99mTc complex) [^99mTc-Cmpd 13]	56.8	0.2	57.0	6	29	19	9	4.5 ± 1.5	10.4 ± 3.0	7	18	18	8	3.4 ± 0.7	7.9 ± 1.6
Fmoc-NQEQVSP(I-Y)TLLKG-Pn216 [^99mTc-Cmpd 26]	55.1	8.2	63.3	7	31	54	12	4.0 ± 0.9	12.9 ± 3.5	16	38	16	11	14.1 ± 10	41.4 ± 28
Z-NQEQVSPYTLLKG-Pn216 ({code Z}-NQEQVSPYTLLKG-Pn216; reading uncertain; also: 99mTc complex, printed as Z-NQEQVSPYTLLKG-Pn216) [^99mTc-Cmpd 8]	24.5	1.4	25.9	10	24	16	9	5.3 ± 1.3	16.4 ± 4.3	14	41	21	18	6.7 ± 1.7	21.0 ± 6.8
Ac-NQEQVSPYTLLKG-(PEG)10k-Pn216 (Ac-NQEQVSPYTLLKG-{PEG 10k-Pn216}; also: 99mTc complex) [^99mTc-Cmpd 41]	37.4	7.1	44.5	1	13	4	6	0.4 ± 0.1	1.1 ± 0.3	3	6	8	4	0.7 ± 0.1	2.2 ± 0.3
Ac-NQEQVSP(D-Y)TLL(D-K)βAla-Pn216 [^99mTc-Cmpd 33]	63.8	0.1	63.9	16	24	16	9	2.2 ± 0.6	6.7 ± 1.6	11	32	28	16	2.7 ± 0.2	7.8 ± 0.6
Ac-NQEQVSP(pBr-F)TLLKG-Pn216 [^99mTc-Cmpd 21]	60.1	0.5	60.6	31	32	31	13	2.7 ± 2.3	8.5 ± 6.8	11	28	13	16	2.3 ± 1.3	7.4 ± 4.0
Ac-NQQQVSPYTLLKG-Pn216 (also: 99mTc complex) [^99mTc-Cmpd 15]	55.2	0.4	55.6	3	1		0.6	3.4 ± 0.6	7.6 ± 1.6	4	12	11	6	3.6 ± 1.0	8.3 ± 2.2
Ac-LGPGQSKVIG-Pn44 (also: 99mTc complex) [^99mTc-Cmpd 45]	28.6	0.1	28.7	8	11	3	5	2.0 ± 0.8	5.7 ± 2.3	6	10	3	5	2.0 ± 0.5	5.5 ± 1.3
Ac-LEFDTQSKNILG-Pn216 (also: 99mTc complex) [^99mTc-Cmpd 47]	49.8	0.1	49.9	1	46	44	24	0.5 ± 0.3	1.5 ± 0.8	0.8	3	1	1	0.8 ± 0.7	2.2 ± 2.0
